What is called IC50 is the concentration that gives 50% inhibition. In general, solubility refers to how much of the substance goes into solution per volume. Low readings indicate a poorly soluble substance, high ones a readily soluble substance.

Each structure is given as a SMILES string.

The target of the first data set is Recombinant human BACE-1 (Homo sapiens (Human), UniProt P56817). The experiment in a line: Assay of β-secretase-inhibiting activity.
Chain of Recombinant human BACE-1 (P56817 46-501): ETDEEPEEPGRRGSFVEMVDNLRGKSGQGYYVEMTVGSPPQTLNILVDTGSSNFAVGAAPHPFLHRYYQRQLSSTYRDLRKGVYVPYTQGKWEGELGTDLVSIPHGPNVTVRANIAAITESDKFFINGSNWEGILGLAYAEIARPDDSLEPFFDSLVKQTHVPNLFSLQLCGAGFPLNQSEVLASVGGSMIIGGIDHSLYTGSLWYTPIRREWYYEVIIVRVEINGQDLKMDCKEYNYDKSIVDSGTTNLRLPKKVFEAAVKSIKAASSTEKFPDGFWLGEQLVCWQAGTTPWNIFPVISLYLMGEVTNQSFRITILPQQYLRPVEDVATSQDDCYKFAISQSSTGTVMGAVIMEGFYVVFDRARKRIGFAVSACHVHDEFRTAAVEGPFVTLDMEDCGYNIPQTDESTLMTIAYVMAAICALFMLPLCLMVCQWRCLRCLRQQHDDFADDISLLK
Conditions: not given
As for `COCCOc1cnc(C(=O)Nc2cccc(C3(C4CCCCC4)CSC(N)=N3)c2)cn1` (stereo not shown) [Compound 1], the half-inhibitory concentration (IC50) is at most 1000 nM.

As for `COc1ccc(C2(c3cccc(NC(=O)c4ncc(Cl)cc4Cl)c3)CSC(N)=N2)cc1` (stereo not shown) [Compound 4], the IC50 is at most 1000 nM.

Regarding `COc1ccc(C2(c3cccc(NC(=O)c4cnc(O)cn4)c3)CSC(N)=N2)cc1` (stereo not shown) [Compound 5], the 50% inhibitory concentration (IC50) is at most 1000 nM.

For `Cc1cnc(C(=O)Nc2ccc(F)c([C@]3(C)C=CSC(N)=N3)c2)cn1` [Compound 12], the IC50 was at most 1000 nM.

For `COc1cnc(C(=O)Nc2ccc(F)c([C@]3(C)C=CSC(N)=N3)c2)cn1` [Compound 13], the IC50 is at most 1000 nM.

Take `C#CCOc1cnc(C(=O)Nc2ccc(F)c([C@]3(C)C=CSC(N)=N3)c2)cn1` [Compound 14]: the IC50 was at most 1000 nM.

As to `Cc1nc(C(=O)Nc2ccc(F)c([C@]3(C)C=CSC(N)=N3)c2)co1` [Compound 15], the IC50 was at most 1000 nM.

Take `COc1cnc(C(=O)Nc2ccc(F)c([C@]3(C)C=C(c4ccccc4)SC(N)=N3)c2)cn1` [Compound 18]: the IC50 was at most 1000 nM.

`Cc1cnc(C(=O)Nc2ccc(F)c([C@]3(C)C=C(c4ccccc4)SC(N)=N3)c2)cn1` [Compound 19]: the IC50 was at most 1000 nM.

As for `COc1cnc(C(=O)Nc2ccc(F)c([C@]3(C)C=C(C)SC(N)=N3)c2)cn1` [Compound 25], the concentration for half-maximal inhibition (IC50) was at most 1000 nM.

Turning to `C#CCOc1cnc(C(=O)Nc2ccc(F)c([C@]3(C)C=C(C)SC(N)=N3)c2)cn1` [Compound 26], the IC50 was at most 1000 nM.

Take `CC1=C[C@@](C)(c2cc(NC(=O)c3ccc(C#N)cn3)ccc2F)N=C(N)S1` [Compound 27]: the IC50 was at most 1000 nM.

Take `COc1cnc(C(=O)Nc2cccc([C@]3(C)C=CSC(N)=N3)c2)cn1` [Compound 28]: the IC50 was at most 1000 nM.

Take `C#CCOc1cnc(C(=O)Nc2cccc([C@]3(C)C=CSC(N)=N3)c2)cn1` [Compound 29]: the IC50 is at most 1000 nM.

Take `C[C@@]1(c2cccc(NC(=O)c3ccc(C#N)cn3)c2)C=CSC(N)=N1` [Compound 30]: the IC50 was at most 1000 nM.

Regarding `C[C@@]1(c2cc(NC(=O)c3cnc(OCCF)cn3)ccc2F)C=CSC(N)=N1` [Compound 31], the IC50 was at most 1000 nM.

On to `COCCOc1cnc(C(=O)Nc2ccc(F)c([C@]3(C)C=CSC(N)=N3)c2)cn1` [Compound 34], for which the IC50 was at most 1000 nM.

In the case of `C[C@@]1(c2cc(NC(=O)c3cnc(-c4ccc[nH]4)cn3)ccc2F)C=CSC(N)=N1` [Compound 36], the half-maximal inhibitory concentration (IC50) was at most 1000 nM.

Regarding `COc1cnc(C(=O)Nc2ccc(F)c([C@]3(C)C=CSC(N)=N3)c2)c(N)n1` [Compound 37], the IC50 is at most 1000 nM.

Take `NC1=NC(c2cccc(NC(=O)c3ncc(Cl)cc3Cl)c2)(C(F)(F)F)CCS1` (stereo not shown) [Compound 45]: the IC50 is at most 1000 nM.

Regarding `C#CCOc1cnc(C(=O)Nc2cccc(C3(C(F)(F)F)CCSC(N)=N3)c2)cn1` (stereo not shown) [Compound 49], the IC50 was at most 1000 nM.

On to `C=C1C[C@@](C)(c2cc(NC(=O)c3ccc(C#N)cn3)ccc2F)N=C(N)S1` [Compound 50], for which the IC50 was at most 1000 nM.

In the case of `C=C1C[C@@](C)(c2cc(NC(=O)c3ncc(Cl)cc3Cl)ccc2F)N=C(N)S1` [Compound 52], the IC50 is at most 1000 nM.

`C[C@@]1(c2cc(NC(=O)c3ccc(C#N)cn3)ccc2F)C/C(=C/CO)SC(N)=N1` [Compound 54]: the half-inhibitory concentration (IC50) is at most 1000 nM.

`CC(C)(O)/C=C1/C[C@@](C)(c2cc(NC(=O)c3ccc(C#N)cn3)ccc2F)N=C(N)S1` [Compound 55]: the IC50 was at most 1000 nM.

`NC1=NC(c2ccc(OC(F)(F)F)cc2)(c2cccc(NC(=O)c3ncc(Cl)cc3Cl)c2)CS1` (stereo not shown) [Compound 57]: the IC50 was at most 1000 nM.

As for `Cc1ncn(-c2cnc(C(=O)Nc3ccc(F)c([C@]4(C)C=CSC(N)=N4)c3)cn2)n1` [Compound 74], the concentration for half-maximal inhibition (IC50) is at most 1000 nM.

Turning to `C[C@@]1(c2cc(NC(=O)c3ncc(F)cc3F)ccc2F)C=CSC(N)=N1` [Compound 77], the 50% inhibitory concentration (IC50) was at most 1000 nM.

For `C[C@@]1(c2cc(NC(=O)c3ncc(C#N)cn3)ccc2F)C=CSC(N)=N1` [Compound 78], the IC50 is at most 1000 nM.

On to `C[C@@]1(c2cc(NC(=O)c3ncc(Cl)cn3)ccc2F)C=CSC(N)=N1` [Compound 80], for which the IC50 is at most 1000 nM.

Regarding `C[C@@]1(c2cc(NC(=O)c3ncc(C#N)cc3F)ccc2F)C=CSC(N)=N1` [Compound 84], the IC50 is at most 1000 nM.

For the compound `C/C(CO)=C1\C[C@@](C)(c2cc(NC(=O)c3ccc(C#N)cn3)ccc2F)N=C(N)S1` [Compound 85], the IC50 is at most 1000 nM.

For the compound `C/C(=C1\C[C@@](C)(c2cc(NC(=O)c3ccc(C#N)cn3)ccc2F)N=C(N)S1)C(F)F` [Compound 94], the IC50 was at most 1000 nM.

`C=C1C[C@@](C)(c2cc(NC(=O)c3ccc(C#N)cn3)cnc2Cl)N=C(N)S1` [Compound 95]: the IC50 was at most 1000 nM.

`C/C(CN1CCOCC1)=C1\C[C@@](C)(c2cc(NC(=O)c3ccc(C#N)cn3)ccc2F)N=C(N)S1` [Compound 96]: the IC50 is at most 1000 nM.

With `C/C(CN1CCCC1)=C1\C[C@@](C)(c2cc(NC(=O)c3ccc(C#N)cn3)ccc2F)N=C(N)S1` [Compound 98], the IC50 is at most 1000 nM.

As for `C/C(CN(C)C)=C1\C[C@@](C)(c2cc(NC(=O)c3ccc(C#N)cn3)ccc2F)N=C(N)S1` [Compound 100], the IC50 is at most 1000 nM.

On to `C=C1C[C@@](C)(c2cc(NC(=O)c3ccc(C#N)cn3)cnc2C)N=C(N)S1` [Compound 103], for which the IC50 was at most 1000 nM.

As for `C=C1C[C@@](C)(c2cncc(NC(=O)c3ccc(C#N)cn3)c2)N=C(N)S1` [Compound 105], the IC50 is at most 1000 nM.

Regarding `C=C1C[C@@](C)(c2cncc(NC(=O)c3ccc(C(F)(F)F)cn3)c2)N=C(N)S1` [Compound 107], the half-maximal inhibitory concentration (IC50) was at most 1000 nM.

Still in this data set, the particulars now being: Recombinant human BACE-1 7.4 nM, substrate peptide 18 nM, pH 5.0, 30° C. 3 hours.
For `NC1=NC(c2cccc(NC(=O)c3ccc(O)cn3)c2)(C2CCCCC2)CS1` (stereo not shown) [Compound 3], the half-maximal inhibitory concentration (IC50) came out at 966 nM.

In the case of `C[C@@]1(c2cc(NC(=O)c3ccc(Cl)cn3)ccc2F)C=CSC(N)=N1` [Compound 16], the IC50 is 10 nM.

For the compound `CC(C)=C1C[C@@](C)(c2cc(NC(=O)c3cnc(C)cn3)ccc2F)N=C(N)S1` [Compound 20], the IC50 came out at 95 nM.

Consider `COc1cnc(C(=O)Nc2ccc(F)c([C@]3(C)CC(=C(C)C)SC(N)=N3)c2)cn1` [Compound 21], for which the IC50 came to 19 nM.

Consider `COc1cnc(C(=O)Nc2ccc(F)c([C@@]3(C)N=C(N)SC=C3C)c2)cn1` [Compound 22], for which the concentration for half-maximal inhibition (IC50) is 572 nM.

With `CC1=CSC(N)=N[C@]1(C)c1cc(NC(=O)c2cnc(C)cn2)ccc1F` [Compound 23], the half-maximal inhibitory concentration (IC50) came to 5280 nM.

As for `C#CCOc1cnc(C(=O)Nc2ccc(F)c([C@@]3(C)N=C(N)SC=C3C)c2)cn1` [Compound 24], the half-inhibitory concentration (IC50) was found to be 54 nM.

On to `COCCOc1ccc(C(=O)Nc2ccc(F)c([C@]3(C)C=CSC(N)=N3)c2)nc1` [Compound 33], for which the IC50 amounted to 73 nM.

For `C[C@@]1(c2cc(NC(=O)c3ccc(-c4ccc[nH]4)cn3)ccc2F)C=CSC(N)=N1` [Compound 39], the IC50 came out at 97 nM.

For `Cc1cnc(C(=O)Nc2cccc(C3(C(F)(F)F)CCSC(N)=N3)c2)cn1` (stereo not shown) [Compound 44], the 50% inhibitory concentration (IC50) amounted to 2130 nM.

For `NC1=NC(c2cccc(NC(=O)c3cnc(OCCF)cn3)c2)(C(F)(F)F)CCS1` (stereo not shown) [Compound 46], the half-maximal inhibitory concentration (IC50) turned out to be 611 nM.

On to `N#Cc1ccc(C(=O)Nc2cccc(C3(C(F)(F)F)CCSC(N)=N3)c2)nc1` (stereo not shown) [Compound 47], for which the IC50 is 91 nM.

With `COc1cnc(C(=O)Nc2cccc(C3(C(F)(F)F)CCSC(N)=N3)c2)cn1` (stereo not shown) [Compound 48], the IC50 worked out at 273 nM.

Regarding `C=C1C[C@@](C)(c2cc(NC(=O)c3cnc(OC)cn3)ccc2F)N=C(N)S1` [Compound 51], the IC50 came to 16 nM.

With `C=C1C[C@@](C)(c2cc(NC(=O)c3cnc(C)cn3)ccc2F)N=C(N)S1` [Compound 53], the 50% inhibitory concentration (IC50) was determined as 76 nM.

`NC1=NC(c2cccc(F)c2)(c2cccc(NC(=O)c3ncc(Cl)cc3Cl)c2)CS1` (stereo not shown) [Compound 56]: the concentration for half-maximal inhibition (IC50) stood at 352 nM.

Consider `COc1ccc(C2(c3cccc(NC(=O)c4ncc(Cl)cc4Cl)c3)CSC(N)=N2)cc1O` (stereo not shown) [Compound 58], for which the concentration for half-maximal inhibition (IC50) is 186 nM.

For `C[C@@]1(c2cc(NC(=O)c3ncc(C#N)cc3Cl)ccc2F)C=CSC(N)=N1` [Compound 59], the IC50 is 19 nM.

For `C[C@@]1(c2cc(NC(=O)c3cnc(OCc4ncc[nH]4)cn3)ccc2F)C=CSC(N)=N1` [Compound 61], the half-inhibitory concentration (IC50) stood at 169 nM.

With `C[C@@]1(c2cc(NC(=O)c3cnc(NS(C)(=O)=O)cn3)ccc2F)C=CSC(N)=N1` [Compound 66], the 50% inhibitory concentration (IC50) was 296 nM.

As for `C[C@@]1(c2cc(NC(=O)c3cnc(-n4ccnn4)cn3)ccc2F)C=CSC(N)=N1` [Compound 72], the half-maximal inhibitory concentration (IC50) came to 250 nM.

Take `C[C@@]1(c2cc(NC(=O)c3cnc(-n4nccn4)cn3)ccc2F)C=CSC(N)=N1` [Compound 73]: the IC50 turned out to be 234 nM.

Regarding `Cc1ncnn1-c1cnc(C(=O)Nc2ccc(F)c([C@]3(C)C=CSC(N)=N3)c2)cn1` [Compound 75], the 50% inhibitory concentration (IC50) was 697 nM.

`C[C@@]1(c2cc(NC(=O)c3ccc(F)cn3)ccc2F)C=CSC(N)=N1` [Compound 76]: the 50% inhibitory concentration (IC50) was 62 nM.

For the compound `C[C@@]1(c2cc(NC(=O)c3ncc(Br)cn3)ccc2F)C=CSC(N)=N1` [Compound 79], the IC50 came out at 24 nM.

On to `Cc1c(C(=O)Nc2ccc(F)c([C@]3(C)C=CSC(N)=N3)c2)oc2ccc(Br)cc12` [Compound 81], for which the concentration for half-maximal inhibition (IC50) worked out at 7 nM.

On to `C=C1C[C@@](C)(c2cc(NC(=O)c3ncc(C#N)cc3F)cnc2Cl)N=C(N)S1` [Compound 101], for which the half-inhibitory concentration (IC50) was found to be 22 nM.

Test system in a further data set: not listed separately
The experiment in a line: Solubility test. The data set is classed as physicochemical. Particulars: pH 1.2, simulated gastric fluid, kinetic from dmso stock; JP-I medium, turbidity after 4 hours. On the procedure:
A 2-fold dilution series (12 points) of a 10 mM solution of a test compound in DMSO was added to a medium (JP-I, JP-II) (2%), and solubility was assessed by 3 stages (High; >40 Medium; 3-40 μM, Low; <3 μM) from a turbidity after 4 hours (crystallization information).
Regarding `COc1cnc(C(=O)Nc2cccc(C3(C4CCCCC4)CSC(N)=N3)c2)cn1` (stereo not shown) [Compound 2], the solubility at 4 h is over 40 µM.

In the case of `NC1=NC(c2ccc(F)cc2)(c2cccc(NC(=O)c3ncc(Cl)cc3Cl)c2)CS1` (stereo not shown) [Compound 9], the solubility at 4 h is over 40 µM.

`CC1=CSC(N)=N[C@]1(C)c1cc(NC(=O)c2cnc(C)cn2)ccc1F` [Compound 23] showed a solubility at 4 h of over 40 µM.

The record behind these values is patent publication US8637504B2, “Sulfur-containing heterocyclic derivative having beta secretase inhibitory activity” (Shionogi & Co., Ltd., priority 2008, dated 2014).
